The Deep4Chem optical property database

Experiment: solvent given as SMILES

For COc1ccc2c3c(c4ccc(OC)cc4c2c1)=[N+]1C(=C(c2c(C)cc(C)cc2C)c2cc4c5ccc(OC)cc5c5cc(OC)ccc5c4n2[B-]1(F)F)C=3, the emission maximum (in C1CCCCC1) was 700 nm, the emission maximum (in C1CCOC1) was 712 nm and the emission maximum (in CC#N) was 712 nm. The emission maximum (in Cc1ccccc1) was 712 nm and the emission maximum (in ClCCl) was 711 nm.

Molecule N#Cc1cc(-n2c3ccccc3c3ccccc32)c(-n2c3ccccc3c3ccccc32)cc1-c1cc(-n2c3ccccc3c3ccccc32)c(-n2c3ccccc3c3ccccc32)cc1C#N has an emission maximum (in Cc1ccccc1) of 458 nm.

c1ccc2cc3cnccc3cc2c1 gave an emission maximum (in CCO) of 426.44 nm.

COc1ccc(C2=C3C(/C=C/c4cc(OC)c(OC)c(OC)c4)=C(C=O)C(/C=C/c4cc(OC)c(OC)c(OC)c4)=[N+]3[B-](F)(F)n3c(/C=C/c4cc(OC)c(OC)c(OC)c4)c(C=O)c(C=Cc4cc(OC)c(OC)c(OC)c4)c32)cc1 gave an emission maximum (in ClCCl) of 722 nm.

Molecule C(=C\c1cnc2ccccc2n1)/c1ccc(N(c2ccccc2)c2ccccc2)cc1 has an emission maximum (in C1CCOC1) of 535 nm, an emission maximum (in CC#N) of 596 nm and an emission maximum (in CCCCCCC) of 461 nm. The emission maximum (in CS(C)=O) was 598 nm and the emission maximum (in ClCCl) was 565 nm.

N#Cc1cc(/C=C/c2ccc(N(c3ccccc3)c3ccccc3)cc2)ccc1/C=C/c1ccc(/C=C/c2ccc(N(c3ccccc3)c3ccccc3)cc2)cc1 gave an emission maximum (in ClCCl) of 560 nm.

With Oc1ccccc1C1=NC2c3cccc4cccc(c34)C2N1c1ccccc1 (stereo not given) the emission maximum (in Cc1ccccc1) was 575 nm.

With CCCCCCCCCCCCOc1ccc(C2=C3C(=O)N(CC(OCC)OCC)C(c4ccc(OCCCCCCCCCCCC)c(OCCCCCCCCCCCC)c4)=C3C(=O)N2CC(OCC)OCC)cc1OCCCCCCCCCCCC the emission maximum (in ClC(Cl)Cl) was 541 nm.

In the case of c1ccc(B2Nc3cc4c(cc3-c3occc32)NB(c2ccccc2)c2ccoc2-4)cc1, the emission maximum (in ClCCl) is reported as 393 nm.

For COC(=O)c1ccccc1-c1c2ccc(=[NH2+])cc-2oc2cc(N)ccc12, the emission maximum (in CC#N) was 525 nm, the emission maximum (in CCO) was 529 nm and the emission maximum (in CN(C)C=O) was 538 nm. It also gave an emission maximum (in O) of 527 nm.

With CCC(C)(C)c1ccc(-c2ccc(-c3ccc(C(C)(C)CC)cc3)cc2)cc1 the emission maximum (in C1COCCO1) was 354 nm.

In the case of C[Si](C)(C)C#Cc1ccc(C#Cc2cnc(C#Cc3ccccc3)nc2)cc1, the emission maximum (in C1CCCCC1) is reported as 390 nm.

For c1ccc2c(c1)-c1cc(-n3c4ccccc4c4ccccc43)ccc1C21c2ccccc2-n2c3ccccc3c3cccc1c32 (stereo not given), the emission maximum (in ClCCl) was 372 nm.

COc1ccc(-n2nc(C#N)c(N3CCCC3)n2)cc1 gave an emission maximum (in CC#N) of 418 nm, an emission maximum (in CCCCCC) of 389 nm and an emission maximum (in CCO) of 415 nm. It also gave an emission maximum (in CN(C)C=O) of 418 nm, an emission maximum (in CO) of 416 nm and an emission maximum (in ClC(Cl)Cl) of 406 nm.

Molecule CCCCN1C(=O)C(=CC=C2N(CCCC)c3ccccc3N2CCCC)C(=O)N(CCCC)C1=S has an emission maximum (in CCCCCC) of 488 nm, an emission maximum (in CCO) of 478 nm and an emission maximum (in CN(C)C=O) of 482 nm. It also gave an emission maximum (in Cc1ccccc1) of 490 nm, an emission maximum (in ClC(Cl)Cl) of 489 nm and an emission maximum (in ClCCl) of 486 nm.

O=C(O)CCCCCn1c2ccccc2c(=O)c2cc(F)ccc21 gave an emission maximum (in O) of 432 nm.

In the case of COc1ccc(-c2c3cc4ccccc4cc3c(-c3ccc(OC)cc3)c3cc4ccccc4cc23)cc1, the emission maximum (in ClCCl) is reported as 620 nm.

For COC(=O)c1cc(=O)n(C)c2cc(-c3cc4c5c(c3)CCCN5CCC4)sc12, the emission maximum (in C1CCOC1) was 502 nm, the emission maximum (in CC#N) was 511 nm and the emission maximum (in CCO) was 508 nm. It also gave an emission maximum (in CN(C)C=O) of 509 nm, an emission maximum (in CO) of 493 nm and an emission maximum (in CS(C)=O) of 508 nm. The emission maximum (in Cc1ccccc1) was 529 nm, the emission maximum (in ClC(Cl)Cl) was 580 nm and the emission maximum (in ClCCl) was 605 nm.

Molecule CC1(C)[C@@H]2CC[C@]1(C)c1nc3cc(-c4cccs4)ccc3nc12 has an emission maximum (in CC#N) of 418 nm, an emission maximum (in CCCCCC) of 402 nm and an emission maximum (in CCCCO) of 442 nm. It also gave an emission maximum (in CCO) of 446 nm, an emission maximum (in CCOC(C)=O) of 406 nm and an emission maximum (in CO) of 451 nm. It also gave an emission maximum (in Cc1ccccc1) of 402 nm, an emission maximum (in ClC(Cl)Cl) of 415 nm and an emission maximum (in ClCCl) of 413 nm.

With CCOC(=O)COc1ccc(/C=C/c2c(CC)c(C)c3n2[B-](F)(F)[N+]2=C(c4[nH]c(C)c(CC)c4C)c4ccccc4C2=C3C)cc1 the emission maximum (in C1CCOC1) was 709 nm, the emission maximum (in CC#N) was 707 nm and the emission maximum (in CCCCCC) was 698 nm. It also gave an emission maximum (in CO) of 711 nm, an emission maximum (in Cc1ccccc1) of 709 nm and an emission maximum (in ClCCl) of 714 nm.

CCOC(=O)c1ccc(O)c(-c2[nH]c(=O)n3c2-c2ccccc2C3=O)c1 gave an emission maximum (in CC#N) of 476 nm, an emission maximum (in CO) of 490 nm and an emission maximum (in ClCCl) of 474 nm.

Molecule Cc1ccc(C)cc1 has an emission maximum (in C1CCCCC1) of 292.06 nm.

In the case of CC[N+](CC)=c1ccc2cc3c(=O)oc4cc5c(cc4c3oc-2c1)CCCN5C, the emission maximum (in ClCCl) is reported as 648 nm and the emission maximum (in O) is reported as 658 nm.

Cc1cc(C)c(C2=C3C=c4c(c5ccc(C(C)(C)C)cc5c5cc(C(C)(C)C)ccc45)=[N+]3[B-](F)(F)n3c2cc2c4ccc(C(C)(C)C)cc4c4cc(C(C)(C)C)ccc4c23)c(C)c1 gave an emission maximum (in C1CCCCC1) of 707 nm, an emission maximum (in C1CCOC1) of 711 nm and an emission maximum (in CC#N) of 711 nm. The emission maximum (in Cc1ccccc1) was 715 nm and the emission maximum (in ClCCl) was 715 nm.

For c1ccc2c(c1)-c1c(ccc3ccccc13)C21c2cc(-c3ccc4ccc5cccc6ccc3c4c56)ccc2-c2ccc(-c3ccc4ccc5cccc6ccc3c4c56)cc21, the emission maximum (in ClC(Cl)Cl) was 422 nm.

Work on COc1cccc(C2=C3C=C(/C=C/C(=O)OC(C)(C)C)C=[N+]3[B-](F)(F)n3cccc32)c1 yielded an emission maximum (in ClCCl) of 581 nm.
